Assay results from ChEMBL document CHEMBL2303647, “Data associated with the publication PLoS ONE, 8(3), e57888, (2013) PMID: 23505445. Compounds: GSK PKIS; Assays: NIH NCATS”.

Tests used:
[1] = target: Luciferin 4-monooxygenase (Photinus pyralis, UniProt P08659)
Description: GSK_PKIS: Inhibition of Firefly Luciferase (Data from PubChem: AID 652016) [NIH NCATS]

[2] = target: T1, Coelenterazine h 2-monooxygenase (Renilla reniformis, UniProt P27652)
T1 sequence (P27652 whole entry): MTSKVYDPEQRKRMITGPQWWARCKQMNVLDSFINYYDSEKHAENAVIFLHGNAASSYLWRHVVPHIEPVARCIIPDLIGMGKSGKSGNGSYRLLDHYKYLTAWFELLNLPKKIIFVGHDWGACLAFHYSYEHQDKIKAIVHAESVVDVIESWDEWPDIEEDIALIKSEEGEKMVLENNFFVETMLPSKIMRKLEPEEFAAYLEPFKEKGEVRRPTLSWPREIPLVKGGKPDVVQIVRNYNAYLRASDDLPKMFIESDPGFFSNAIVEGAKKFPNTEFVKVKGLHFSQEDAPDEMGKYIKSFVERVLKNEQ
Description: GSK_PKIS: Inhibition of Sea Pansy Luciferase (Data from PubChem: AID 652015) [NIH NCATS]

Luciferin 4-monooxygenase, sequence (P08659 whole entry): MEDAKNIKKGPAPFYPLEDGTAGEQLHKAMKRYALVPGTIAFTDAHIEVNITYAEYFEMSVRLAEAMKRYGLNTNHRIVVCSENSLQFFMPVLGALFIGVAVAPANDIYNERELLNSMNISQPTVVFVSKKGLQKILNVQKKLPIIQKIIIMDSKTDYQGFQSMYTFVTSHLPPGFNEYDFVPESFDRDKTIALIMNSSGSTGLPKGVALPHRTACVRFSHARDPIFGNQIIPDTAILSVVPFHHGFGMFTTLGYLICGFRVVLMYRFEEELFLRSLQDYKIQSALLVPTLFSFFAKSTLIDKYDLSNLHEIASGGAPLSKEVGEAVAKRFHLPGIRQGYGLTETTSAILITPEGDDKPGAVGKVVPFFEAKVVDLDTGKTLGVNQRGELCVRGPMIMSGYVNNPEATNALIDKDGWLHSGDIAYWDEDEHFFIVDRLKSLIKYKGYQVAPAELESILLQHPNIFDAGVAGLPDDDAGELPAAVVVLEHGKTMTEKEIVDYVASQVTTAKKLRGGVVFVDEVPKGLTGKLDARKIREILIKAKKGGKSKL

Row | Structure (SMILES) | AC50 [1] | AC50 [2] | AC50 ([2]; read-out: AC50) [µM] | AC50 ([1]; read-out: AC50) [µM]
1 | COC(=O)Nc1nc2ccc(S(=O)(=O)c3ccc(NC(=O)Nc4cc(C(F)(F)F)ccc4F)cc3)cc2[nH]1.Cl [GW680908A] | Phenotype: Inactive; Curve_Description: None | Phenotype: Inactive; Curve_Description: None |  | 
2 | Fc1ccc(-c2cc(-c3c[nH]nc3-c3ccccn3)ccn2)cc1 [GW680975X] | Phenotype: Inactive; Curve_Description: None | Phenotype: Inactive; Curve_Description: None |  | 
3 | CC(C)c1ccc(-c2cc(-c3c[nH]nc3-c3ccccn3)ccn2)cc1 [GW682841X] | Phenotype: Activator; Curve_Description: None |  | 1.46 | 
4 | FC(F)(F)CNc1nccc(-c2cnn3ncccc23)n1 [GW683003X] | Phenotype: Activator; Curve_Description: None | Phenotype: Inactive; Curve_Description: None |  | 
5 | c1cnn2ncc(-c3ccnc(NCCCN4CCOCC4)n3)c2c1 [GW683109X] |  | Phenotype: Inactive; Curve_Description: None |  | 41.1
6 | Cl.O=C(Nc1ccc(Oc2ccc3[nH]c(NC(=O)c4ccco4)nc3c2)cc1)Nc1cc(C(F)(F)F)ccc1F [GW683134A] |  | Phenotype: Inactive; Curve_Description: None |  | 20.6
7 | CCc1nn2ncccc2c1-c1ccnc(NC2CC2)n1 [GW683768X] | Phenotype: Inactive; Curve_Description: None | Phenotype: Inactive; Curve_Description: None |  | 
8 | Fc1cccc(COc2ccc(Nc3ncnc4sc(-c5cccs5)cc34)cc2Cl)c1 [GW684626B] | Phenotype: Inactive; Curve_Description: None | Phenotype: Inactive; Curve_Description: None |  | 
9 | Nc1nc(-c2ccccn2)c(-c2ccc3ncccc3n2)s1 [GW693481X] |  | Phenotype: Inactive; Curve_Description: None |  | 32.6
10 | Cl.Fc1cccc(COc2ccc(Nc3ncnc4cc(-c5ccc[nH]5)sc34)cc2Cl)c1 [GW693881A] | Phenotype: Inactive; Curve_Description: None | Phenotype: Inactive; Curve_Description: None |  | 
11 | COC(=O)Nc1nc2ccc(Oc3ccc(NC(=O)Nc4cc(C(F)(F)F)ccc4F)cc3)cc2s1.Cl [GW693917A] |  | Phenotype: Inactive; Curve_Description: None |  | 13
12 | COC(=O)Nc1nc2cc(Oc3ccc(NC(=O)Nc4cccc(Br)c4)cc3)ccc2[nH]1.Cl [GW694234A] | Phenotype: Inactive; Curve_Description: None | Phenotype: Inactive; Curve_Description: None |  | 
13 | COC(=O)Nc1nc2cc(Oc3ccc(NC(=O)Nc4ccccc4)cc3)ccc2[nH]1.Cl [GW694590A] |  | Phenotype: Inactive; Curve_Description: None |  | 14.6
14 | c1ccc(-c2n[nH]cc2-c2ccnc(-c3ccc(OCCN4CCOCC4)cc3)c2)nc1 [GW695874X] | Phenotype: Inactive; Curve_Description: None | Phenotype: Inactive; Curve_Description: None |  | 
15 | CN1CCN(CCCNc2nc3ccc(Oc4ccc(NC(=O)Nc5cc(C(F)(F)F)ccc5F)cc4)cc3[nH]2)CC1.Cl [GW700494A] | Phenotype: Inactive; Curve_Description: None |  | 23.1 | 
16 | COc1ccc(CNC(=O)c2ccc(-c3cc(-c4nnc(C)o4)ccc3C)cc2)cc1 [GW701032X] | Phenotype: Inactive; Curve_Description: None | Phenotype: Inactive; Curve_Description: None |  | 
17 | COC(=O)Nc1nc2cc(Oc3ccc(NC(=O)Nc4cccc(C(=O)O)c4)cc3)ccc2[nH]1 [GW701427A] |  |  | 41.1 | 0.116
18 | CC(=O)Nc1cccc(C#Cc2cncnc2Nc2ccc(OCc3cccc(F)c3)c(Cl)c2)c1 [GW703087X] | Phenotype: Inactive; Curve_Description: None | Phenotype: Inactive; Curve_Description: None |  | 
19 | c1cc(-c2cnn3nc(N4CCOCC4)ccc23)nc(NC2CC2)n1 [GW708336X] |  | Phenotype: Inactive; Curve_Description: None |  | 4.61
20 | Cc1nnc(-c2ccc(C)c(-c3ccc(C(=O)NCc4ccc(Cl)cc4)cc3)c2)o1 [GW708893X] | Phenotype: Inactive; Curve_Description: None | Phenotype: Inactive; Curve_Description: None |  | 
